Data reported in patent publication US11661582B2, “Method for producing sinoatrial node cells (pacemaker cells) from stem cells, and use of the produced sinoatrial node cells” (UNIVERSITAET ROSTOCK, priority 2013, dated 2023).
Entries after “also recorded” stand apart in the source; their conditions may differ.

Legend:
[1] = test system: cells derived from iSABs (Myh6-TBX3 cells); experiment: Ca2+ imaging (Fluo-4) of spontaneous Ca2+ transients and SR Ca2+ stores in iSAB-derived cells; assay type: cell-based, murine; settings: for frequency of spontaneous Ca2+ transients: 5 μM ZD 7288, 1 μM mibefradil, 1 μM nifedipine, 28° C.; for diastolic Ca2+ level: caffeine 10 mM, thapsigargin 2 μM
[2] = test system: isolated Tbx3-programmed cells (SA/AV pacemaker-type); experiment: Single-cell patch-clamp, action potential rate of Tbx3-programmed cells; assay type: cell-based, murine; settings: 37° C.
Method: For the further validation of the functionality and determination of the proportions of the subtypes of the cardiomyocytes, the electrophysiological properties were analyzed by the single-cell patch-clamp technique and the measurement of the density of the HCN (or funny) channels on day 18 of the differentiation as described [14] [16].
Spontaneous action potentials and currents of contracting cardiomyocytes were recorded at 37° C. in the perforated patch configuration using a MultiClamp 700B amplifier and pClamp10 software (Molecular Devices, Union City, USA). The offline data analysis was conducted with Clampfit software (Molecular Devices, Union City, USA) or by means of Origin 6.0 software (Microcal, Northampton, USA). […] The extracellular (bath) solution contained: 140 mM NaCl, 5.4 mM KCl, 1 mM MgCl2, 1.8 mM CaCl2, 5 mM HEPES, 5.5 mM glucose; the pH was adjusted to 7.4 with NaOH. For better recording of the If, in some cases, 2 mM BaCl2 and 0.3 mM CdCl2 were added to the bath solution in order to block IKl and ICa. If was measured by stepwise change proceeding from a hold potential of −40 mV to test potentials between −130 mV and +20 mV. The current amplitude after 3 seconds during the −130 mV pulse was divided by the cell capacitance in order to determine the current (If) density. To determine the If activation kinetics, the time constant of the activation (τ) was obtained by fitting the current trace of the −130 mV step after the initial delay with the sum of two exponential functions y=A1e1 ^−x/τ)+A2e2^(−x/τ), where τ1 and τ2 are fast and slow time constants for the activation; τ1 is accordingly referred to as τ, since the slow component (A2) of the HCN channel activation is generally <10% of the current amplitude. Isoproterenol or carbachol (Sigma, Taufkirchen, Germany) was dissolved directly in the bath solution on the day of the experiment and the cells were administered by means of a rapid exchange superfusion system. APs were recorded with a 10 kHz sampling rate. The analyses were conducted on the original traces. […]

[3] = test system: sinoatrial node cells produced in vitro from stem cells; experiment: Beat frequency of stem-cell-derived sinoatrial node cells contacted with pharmaceuticals; assay type: cell-based, murine; settings: sinoatrial node cells of the invention contacted with pharmaceuticals
[4] = test system: cells originating from iSAB; experiment: Single-cell patch-clamp, action potential rate of cells originating from iSAB; assay type: cell-based, murine; settings: for AP rate: patch-clamp, 37° C.
Method: Spontaneous action potentials and currents of contracting cardiomyocytes were recorded at 37° C. in the perforated patch configuration using a MultiClamp 700B amplifier and pClamp10 software (Molecular Devices, Union City, USA). The offline data analysis was conducted with Clampfit software (Molecular Devices, Union City, USA) or by means of Origin 6.0 software (Microcal, Northampton, USA). […] The extracellular (bath) solution contained: 140 mM NaCl, 5.4 mM KCl, 1 mM MgCl2, 1.8 mM CaCl2, 5 mM HEPES, 5.5 mM glucose; the pH was adjusted to 7.4 with NaOH. For better recording of the If, in some cases, 2 mM BaCl2 and 0.3 mM CdCl2 were added to the bath solution in order to block IKl and ICa. If was measured by stepwise change proceeding from a hold potential of −40 mV to test potentials between −130 mV and +20 mV. The current amplitude after 3 seconds during the −130 mV pulse was divided by the cell capacitance in order to determine the current (If) density. To determine the If activation kinetics, the time constant of the activation (τ) was obtained by fitting the current trace of the −130 mV step after the initial delay with the sum of two exponential functions y=A1e1 ^−x/τ)+A2e2^(−x/τ), where τ1 and τ2 are fast and slow time constants for the activation; τ1 is accordingly referred to as τ, since the slow component (A2) of the HCN channel activation is generally <10% of the current amplitude. Isoproterenol or carbachol (Sigma, Taufkirchen, Germany) was dissolved directly in the bath solution on the day of the experiment and the cells were administered by means of a rapid exchange superfusion system. APs were recorded with a 10 kHz sampling rate. The analyses were conducted on the original traces. The inclination/slope of the linear fit of the distance from the MDP to the potential threshold is the DDR; the AP duration is the time from the threshold potential to the MDP.

cells derived from aCaBs = experiment: Ca2+ imaging (Fluo-4) of SR Ca2+ stores in aCaB-derived control cells; assay type: cell-based, murine
murine ES cells = settings: literature [9]; cited from earlier work

SMILES: COCC(=O)O[C@]1(CCN(C)CCCc2nc3ccccc3[nH]2)CCc2cc(F)ccc2[C@@H]1C(C)C [mibefradil]
- frequency of spontaneous Ca2+ transients [1]: moderate decrease

SMILES: C[N+](C)(C)CCOC(N)=O [carbachol]
- AP rate [2]: slowed
- beat frequency [3]: significant reduction in beat frequency
- AP rate [4]: slowed

SMILES: C/C=C(/C)C(=O)O[C@H]1C(C)=C2[C@H]([C@@H]1OC(=O)CCCCCCC)[C@@](C)(OC(C)=O)C[C@H](OC(=O)CCC)[C@@]1(O)[C@H]2OC(=O)[C@@]1(C)O [thapsigargin]
- rate of intracellular Ca2+ accumulation with SERCA inhibition ([1]; Na+/Ca2+ exchanger blocked plus SERCA inhibition, vs. no SERCA inhibition, iSAB-derived cells): fourfold increase
- diastolic Ca2+ level ([1]; iSAB-derived cells): increase in the Ca^2+ diastolic level; also recorded: increased diastolic Ca^2+ levels
- reduction of caffeine Ca2+ peak (factor) ([1]; caffeine added 5 min after incubation with thapsigargin, iSAB-derived cells): 4
- caffeine Ca2+ peak with and without SERCA inhibition (cells derived from aCaBs; control cells (aCaB-derived)): remained identical
- intracellular Ca2+ accumulation with SERCA inhibition (cells derived from aCaBs; control cells (aCaB-derived)): impossible to detect any intracellular Ca^2+ accumulation

SMILES: CC(C)NCC(O)c1ccc(O)c(O)c1 (stereo not drawn) [isoproterenol]
- AP rate [2]: acceleration in the AP rate
- AP rate ([2]; listed as isoprotenerol): accelerated
- beat frequency [3]: increase in beat frequency
- AP rate [4]: accelerated
- beat frequencies in response to isoprotenerol ([4]; range up to): up to 560 bpm

SMILES: Cn1c(=O)c2c(ncn2C)n(C)c1=O [caffeine]
- caffeine-induced Ca2+ peak, sarcolemmal Ca2+ influx blocked ([1]; blockage of Na+/Ca2+ exchanger and Ca2+ channels, iSAB-derived cells compared to aCaB-derived cells): four times greater; also recorded: large caffeine peak
- diastolic Ca2+ level ([1]; iSAB-derived cells): increased the diastolic Ca^2+ level
- caffeine-induced effect on SR-Ca2+ release (cells derived from aCaBs; caffeine 10 mM, aCaB-derived cells): No similar caffeine-induced effect

SMILES: CCN(c1ccccc1)c1cc(=NC)n(C)c(C)n1.Cl [ZD 7288]
- frequency of spontaneous Ca2+ transients [1]: reduced the frequency of the Ca^2+ transients
- frequency of spontaneous Ca2+ transients ([1]; listed as ZD7288): decrease significantly
- beat frequency [3]: significant reduction in beat frequency

SMILES: CCn1c(=O)[nH]c2ccccc21 [EBIO]
- formation of node cells from murine ES cells (murine ES cells): enhances the formation of node cells
